ChEMBL document CHEMBL1134090, “Esters of 2-(1-hydroxyalkyl)-1,4-dihydroxy-9,10-anthraquinones with melphalan as multifunctional anticancer agents” (Bioorg Med Chem Lett, 2001)
Values after ≈ are worked out from the molar mass of the structure shown.

Legend:
Mus musculus = species: Mus musculus; experiment: Ratio of number of mice that survived after 50 days among eight mice tested; type: functional
[1] = Cytotoxicity against L-1210 cells; type: cell-based, L1210; details: mouse, read-out: ED50 (the source's name)
[2] = Antitumor activity against S-180 cells after i.p. administration in mice up to 7 days at a dose of 16 umol/kg; type: functional, Mus musculus

SMILES | Survival ratio (Mus musculus) | CC50 [1] | T/C [2]
CCC(OC(=O)C(Cc1ccc(N(CCCl)CCCl)cc1)NC=O)c1cc(O)c2c(c1O)C(=O)c1ccccc1C2=O (stereo not drawn) | 3 | 0.2 µg/mL (≈ 0.326 µM) | 245%
CCCCC(OC(=O)C(Cc1ccc(N(CCCl)CCCl)cc1)NC=O)c1cc(O)c2c(c1O)C(=O)c1ccccc1C2=O (stereo not drawn) | 2 | 0.4 µg/mL (≈ 0.623 µM) | 230%
CCCCCC(O)c1cc(O)c2c(c1O)C(=O)c1ccccc1C2=O (stereo not drawn) |  | 58 µg/mL (≈ 170 µM) | 108%
CCCC(O)c1cc(O)c2c(c1O)C(=O)c1ccccc1C2=O (stereo not drawn) |  | 10.2 µg/mL (≈ 32.7 µM) | 125%
CCCCC(O)c1cc(O)c2c(c1O)C(=O)c1ccccc1C2=O (stereo not drawn) |  | 23.7 µg/mL (≈ 72.6 µM) | 110%
CCC(O)c1cc(O)c2c(c1O)C(=O)c1ccccc1C2=O (stereo not drawn) |  | 7.2 µg/mL (≈ 24.1 µM) | 135%
O=CNC(Cc1ccc(N(CCCl)CCCl)cc1)C(=O)OCc1cc(O)c2c(c1O)C(=O)c1ccccc1C2=O (stereo not drawn) | 3 | 0.086 µg/mL (≈ 0.147 µM) | 265%
O=C1c2ccccc2C(=O)c2c(O)c(CO)cc(O)c21 |  | 15 µg/mL (≈ 55.5 µM) | 125%
CC(O)c1cc(O)c2c(c1O)C(=O)c1ccccc1C2=O (stereo not drawn) |  | 1.9 µg/mL (≈ 6.68 µM) | 139%
CCCCCC(OC(=O)C(Cc1ccc(N(CCCl)CCCl)cc1)NC=O)c1cc(O)c2c(c1O)C(=O)c1ccccc1C2=O (stereo not drawn) | 1 | 3.1 µg/mL (≈ 4.73 µM) | 230%
CCCCCCC(O)c1cc(O)c2c(c1O)C(=O)c1ccccc1C2=O (stereo not drawn) |  | 60 µg/mL (≈ 169 µM) | 115%
CCCCCCCC(O)c1cc(O)c2c(c1O)C(=O)c1ccccc1C2=O (stereo not drawn) |  | 80 µg/mL (≈ 217 µM) | 103%
CC(OC(=O)C(Cc1ccc(N(CCCl)CCCl)cc1)NC=O)c1cc(O)c2c(c1O)C(=O)c1ccccc1C2=O (stereo not drawn) | 6 | 0.12 µg/mL (≈ 0.2 µM) | 272%
CCCC(OC(=O)C(Cc1ccc(N(CCCl)CCCl)cc1)NC=O)c1cc(O)c2c(c1O)C(=O)c1ccccc1C2=O (stereo not drawn) | 3 | 0.97 µg/mL (≈ 1.55 µM) | 240%
CCCCCCC(OC(=O)C(Cc1ccc(N(CCCl)CCCl)cc1)NC=O)c1cc(O)c2c(c1O)C(=O)c1ccccc1C2=O (stereo not drawn) | 0 | 4.5 µg/mL (≈ 6.72 µM) | 210%
CCCCCCCC(OC(=O)C(Cc1ccc(N(CCCl)CCCl)cc1)NC=O)c1cc(O)c2c(c1O)C(=O)c1ccccc1C2=O (stereo not drawn) | 0 | 5.9 µg/mL (≈ 8.63 µM) | 205%
N[C@@H](Cc1ccc(N(CCCl)CCCl)cc1)C(=O)O [MELPHALAN] | 3 | 0.89 µg/mL (≈ 2.92 µM) | 225%
